Source: US5866548A, “Caged membrane-permeant inositol phosphates” (priority 1996, dated 1999)
pEC50, pIC50: −log10 of the molar value. “Also recorded” adds a separate entry of the source.

What was measured:
1321N1 astrocytoma cells [1] = experiment: [Ca2+]i response before and after UV uncaging, fluo-3; assay type: cell-based; settings: for [Ca2+]i response after uncaging of IP3-CPM: Ca2+ free medium
Protocol: (b) Same experiment as (a) except done in Ca^2+ free medium (DPBS, O Ca^2+, 0.5 mM EGTA). UV exposure of the cells treated with IP3 -CPM still gave the same response, showing that the [Ca^2+ ]i increase resulted from the release of Ca^2+ from internal stores. […] The cells were loaded with fluo-3/AM. During the experiment the cells were bathed in HBS buffered with 20 mM Hepes at pH 7.4 and supplemented with 2 g/L glucose.
The [Ca^2+ ]i was monitored using the calcium indicator fluo-3 rather than fura-2 to keep the excitation wavelength of the indicator (490 nm) far from the uncaging wavelength (360 nm) of DMNB group. […] Compared to the photolyzing set-up (direct illumination by a hand mercury lamp) used for the IP3 -binding assay, the optical throughput from the source lamp to the specimen is much higher in a microscope, so 10 seconds (as opposed to 2 hours in IP3 binding assay) of photolysis was sufficient to produce enough IP3 to elicit [Ca^2+ ]i increase. The same amount of UV alone had no effect at all on [Ca^2+ ]i in cells not treated with IP3 -CPM. After recovering from uncaging of IP3 -CPM, the cells responded to subsequent carbachol and thapsigargin stimulation normally.
This confirmed that the [Ca^2+ ]i increase due to uncaging of IP3 -CPM resulted from internal Ca^2+ release, which was consistent with the normal mechanism of IP3 action.

1321N1 astrocytoma cells [2] = experiment: as above; assay type: cell-based; settings: with extracellular Ca2+, carbachol 200 μM, thapsigargin 100 nM, ionomycin 5 μM
intestinal cell line T84 = experiment: cells; assay type: cell-based; settings: 0.2 h; T84, ISC 12 min after addition; read-out: EC50 (chloride secretion)
From the text: A convenient test system is the intestinal cell line T84, in which chloride secretion can be continuously monitored by mounting confluent monolayers of cells in Ussing chambers (42).

phosphatase = experiment: Intracellular retention and metabolic (phosphatase) stability; assay type: in vitro ADME
Protocol: In human embryonic kidney cells (HEK cells), the extracellular IP3 -CPM was washed away after the cells had been loaded with 50 μM of IP3 -CPM for 20 minutes. […] Cells in the same dish which had not been exposed to UV light were kept in the dark for over 6 hours. […] However, pretreatment of IP3 -CPM with acetic acid will unmask the 3-hydroxyl and enable the intracellular phosphorylation of delivered IP3.

IP3 receptor (IP3 R) = target: T1, IP3 receptor (IP3 R) (Bos taurus, UniProt Q9TU34); experiment: [3H]IP3 binding assay, bovine cerebellum microsomal fractions; settings: for affinity to IP3 R / binding to cerebellar microsomes (in words): without photolysis
T1 construct: from tissue; host or cells: bovine cerebellum microsomal fractions
T1 sequence (Q9TU34 whole entry): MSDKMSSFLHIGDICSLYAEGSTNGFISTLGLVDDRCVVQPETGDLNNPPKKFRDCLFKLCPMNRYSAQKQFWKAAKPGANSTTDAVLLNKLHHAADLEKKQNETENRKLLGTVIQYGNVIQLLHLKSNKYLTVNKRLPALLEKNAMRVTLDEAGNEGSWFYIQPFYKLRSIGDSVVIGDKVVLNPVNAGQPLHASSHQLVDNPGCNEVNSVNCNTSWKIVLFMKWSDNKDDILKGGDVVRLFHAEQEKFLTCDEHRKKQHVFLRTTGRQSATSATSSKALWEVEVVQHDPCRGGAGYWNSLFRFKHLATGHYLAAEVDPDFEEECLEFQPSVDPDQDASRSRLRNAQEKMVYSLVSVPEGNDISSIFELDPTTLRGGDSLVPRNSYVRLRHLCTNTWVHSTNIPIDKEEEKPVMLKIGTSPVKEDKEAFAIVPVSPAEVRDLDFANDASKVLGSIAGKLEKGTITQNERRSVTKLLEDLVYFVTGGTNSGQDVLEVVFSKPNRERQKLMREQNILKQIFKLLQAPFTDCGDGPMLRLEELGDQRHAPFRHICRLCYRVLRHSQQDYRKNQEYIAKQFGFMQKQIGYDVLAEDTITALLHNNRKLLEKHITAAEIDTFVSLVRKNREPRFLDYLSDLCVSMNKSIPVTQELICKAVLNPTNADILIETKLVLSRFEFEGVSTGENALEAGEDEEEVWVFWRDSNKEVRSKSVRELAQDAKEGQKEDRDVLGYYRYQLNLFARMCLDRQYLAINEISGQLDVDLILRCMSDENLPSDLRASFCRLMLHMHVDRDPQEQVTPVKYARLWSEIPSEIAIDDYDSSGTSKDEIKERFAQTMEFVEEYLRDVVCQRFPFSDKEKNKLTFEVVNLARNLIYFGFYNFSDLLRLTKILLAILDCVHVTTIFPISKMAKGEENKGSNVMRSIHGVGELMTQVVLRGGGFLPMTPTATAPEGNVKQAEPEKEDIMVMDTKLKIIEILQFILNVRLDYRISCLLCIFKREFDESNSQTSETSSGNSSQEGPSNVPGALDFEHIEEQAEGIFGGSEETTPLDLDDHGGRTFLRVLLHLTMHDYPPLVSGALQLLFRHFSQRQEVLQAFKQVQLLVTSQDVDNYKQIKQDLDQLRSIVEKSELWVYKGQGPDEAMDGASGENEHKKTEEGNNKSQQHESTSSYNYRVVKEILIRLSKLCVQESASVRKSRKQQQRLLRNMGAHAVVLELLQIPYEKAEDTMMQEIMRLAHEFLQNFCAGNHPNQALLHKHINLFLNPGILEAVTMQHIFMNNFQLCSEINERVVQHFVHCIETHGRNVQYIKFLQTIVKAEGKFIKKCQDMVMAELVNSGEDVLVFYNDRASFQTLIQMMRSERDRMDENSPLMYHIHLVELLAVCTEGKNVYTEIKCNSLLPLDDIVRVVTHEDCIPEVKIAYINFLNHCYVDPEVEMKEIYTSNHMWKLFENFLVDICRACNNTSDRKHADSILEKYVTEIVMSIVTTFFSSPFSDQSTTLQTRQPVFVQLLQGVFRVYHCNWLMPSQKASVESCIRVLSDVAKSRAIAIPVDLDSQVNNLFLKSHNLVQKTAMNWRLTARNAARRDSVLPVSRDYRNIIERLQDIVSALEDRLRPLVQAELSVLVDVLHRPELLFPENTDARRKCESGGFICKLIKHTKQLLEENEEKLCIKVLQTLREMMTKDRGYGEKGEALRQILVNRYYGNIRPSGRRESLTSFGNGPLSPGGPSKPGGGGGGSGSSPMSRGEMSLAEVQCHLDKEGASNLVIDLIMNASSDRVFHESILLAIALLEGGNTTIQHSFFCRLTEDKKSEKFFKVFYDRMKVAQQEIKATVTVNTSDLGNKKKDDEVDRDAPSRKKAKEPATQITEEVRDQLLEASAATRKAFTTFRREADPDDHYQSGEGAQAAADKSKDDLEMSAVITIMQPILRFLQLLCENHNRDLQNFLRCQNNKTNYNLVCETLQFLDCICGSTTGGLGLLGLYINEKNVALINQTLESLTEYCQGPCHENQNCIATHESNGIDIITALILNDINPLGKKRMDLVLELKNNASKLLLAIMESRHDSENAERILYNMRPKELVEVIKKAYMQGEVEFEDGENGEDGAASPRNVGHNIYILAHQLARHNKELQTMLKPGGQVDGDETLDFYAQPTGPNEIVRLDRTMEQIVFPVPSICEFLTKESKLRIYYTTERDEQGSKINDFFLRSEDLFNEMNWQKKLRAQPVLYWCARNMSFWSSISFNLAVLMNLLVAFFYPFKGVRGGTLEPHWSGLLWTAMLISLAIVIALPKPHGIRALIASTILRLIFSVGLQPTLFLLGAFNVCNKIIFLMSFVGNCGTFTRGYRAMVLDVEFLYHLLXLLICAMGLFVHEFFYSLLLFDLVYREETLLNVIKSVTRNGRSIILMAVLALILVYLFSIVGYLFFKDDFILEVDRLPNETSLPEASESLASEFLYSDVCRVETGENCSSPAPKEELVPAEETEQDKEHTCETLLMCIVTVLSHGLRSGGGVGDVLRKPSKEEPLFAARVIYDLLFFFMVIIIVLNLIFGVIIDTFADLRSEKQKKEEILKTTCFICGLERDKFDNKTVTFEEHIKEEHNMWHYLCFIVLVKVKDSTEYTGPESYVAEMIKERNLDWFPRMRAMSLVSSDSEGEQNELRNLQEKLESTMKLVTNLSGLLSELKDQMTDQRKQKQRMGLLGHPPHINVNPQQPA
Protocol: Bovine cerebellum microsomal fractions, which are a rich source of IP3 binding protein, were prepared and used for [^3 H]IP3 binding assay. […] The IC50 of D-IP3 was about 8 nM.
At this point, the crude photolysis product from 100 pmol V-16 was equivalent in binding activity to 32 pmol of authentic IP3. […] The absolute stereochemistry of V-3 and its diastereomer was thus assigned.

1321N1 astrocytoma cells [3] = experiment: Cytosolic free Ca2+ imaging, fura-2; assay type: cell-based
Protocol: Biological tests on 1321N1 astrocytoma cells were performed similarly to the tests on REF-52 cells (71). The concentration of Cytosolic free Ca^2+ (ordinate, in units of μM) in fura-2-loaded 1321N1 astrocytoma cells is shown as a function of time (abscissa, in units of seconds). At the dotted vertical line labeled 1, 20 μM inositol-1,4,5-triphosphate propionyloxymethyl ester (5a, R=Et, R'=H) was added. […] Subsequently the cells could respond to carbachol (200 μM, delivered at the dotted vertical line labeled 2), a drug that stimulates the endogenous generation of inositol-1,4,5-triphosphate. However, the response to carbachol is depressed by the prior treatment with the inositol-1,4,5-triphosphate propionyloxymethyl ester. Likewise the Ca^2+ response to thapsigargin (100 nM, delivered at the dotted vertical line labeled 3), another drug that releases stored Ca^2+, is depressed.
A test similar to the one shown in FIG. 7 was conducted except that the medium lacked extracellular Ca^2+ and a dose of 60 μM inositol-1,4,5-triphosphate propionyloxymethyl ester was added at the dotted vertical line labeled 1. […] Because no extracellular Ca^2+ was present, this response must have represented release from intracellular Ca^2+ stores. […] The much greater degree of inhibition of the carbachol response compared to the previous example (FIG. 7) is due to the higher dose of the inositol-1,4,5-triphosphate propionyloxymethyl ester and the absence of extracellular Ca^2+, which reduces refilling of Ca^2+ stores.
In a further example, the same test as set forth above was conducted with astrocytoma cells, except that 2 μM inositol-1,4,5-triphosphate butyryloxymethyl ester (5a, R=Pr, R'=H) was used instead of the propionyloxymethyl ester.

REF-52 fibroblasts = experiment: Cytosolic free Ca2+ imaging, fura-2; assay type: cell-based
Protocol: The best-established biological effect of IP3 is to release Ca^2+ from internal stores (26), so IP3 /PM (5a, R=Et, R'=H) was tested by imaging cytosolic free Ca^2+ levels in single REF-52 fibroblasts using standard methodology (58). Cells were loaded with the Ca^2+ -indicator fura-2 and viewed by fluorescence excitation ratioing. IP3 /PM (40 μM) was applied extracellularly while monitoring cytosolic Ca^2+ concentrations.

[4] = system: P388D1 macrophage-like cells; experiment: [Ca2+]i response before and after UV uncaging, fluo-3; assay type: cell-based; settings: PAF 100 nM, ionomycin 5 μM
Protocol: The cells were loaded with fluo-3/AM. During the experiment the cells were bathed in HBS buffered with 20 mM Hepes at pH 7.4 and supplemented with 2 g/L glucose.
Another example was carried out in P388D1 macrophage-like cells.
Studies by Asmis et al. (92) have shown that, in P388D1 macrophage-like cells, PAF stimulated PGE2 production is mediated through two separate signals: IP3 induced [Ca^2+ ]i increase and another unidentified signal. IP3 -CPM might serve as a new tool for detailed study of PGE2 formation and AA release in relation to IP3 and [Ca^2+ ]i in these cells. One of the major advantages of using permeant IP3 derivatives is that experiments can be easily carried out in a population of cells, which is required for the measurement of AA release and PGE2 formation.

[5] = 20 μM compound, with extracellular Ca2+

## C[N+](C)(C)CCOC(N)=O [Carbachol]
1321N1 astrocytoma cells [1]
  [Ca2+]i response after uncaging of IP3-CPM: able to cause further Ca^2+ release
1321N1 astrocytoma cells [2]
  [Ca2+]i response after recovery from uncaging of IP3-CPM: normal response
1321N1 astrocytoma cells [2]; listed as carbachol
  [Ca2+]i response after recovery from uncaging of IP3-CPM: normally

## Nc1ncnc2c1nc(Sc1ccc(Cl)cc1)n2[C@@H]1O[C@@H]2COP(=O)(O)O[C@H]2[C@H]1O [Compound 8-pCPT-cAMP, 8-para-chlorophenylthio (cCPT) cAMP, reference compound]
Intestinal cell line T84
  pEC50: 4.00

## COc1cc(CO[C@@H]2[C@@H](OP(=O)(O)O)[C@H](OP(=O)(O)O)[C@H]3OC(OC)O[C@H]3[C@H]2OP(=O)(O)O)c([N+](=O)[O-])cc1OC (stereo partly drawn) [Compound V-16, D-2,3-O-methoxymethylene-6-O-(4,5-dimethoxy-2-nitrobenzyl)-myo-inositol 1,4,5-trisphosphate]
phosphatase; in cells
  phosphatase degradation / metabolic stability (in words): metabolically fairly stable; also recorded: fairly resistant to phosphatase degradation
  retention in cells (in words): well retained in cells; also recorded: could be trapped inside cells for a long period of time without losing much of its activity
1321N1 astrocytoma cells [1]; caged IP3 analog released inside cells
  releasing Ca2+ without photolysis: inactive in releasing Ca^2+
IP3 receptor (IP3 R); after about 2 h photolysis
  amount of authentic IP3 equivalent in binding activity to crude photolysis product from 100 pmol V-16: 32 pmol
IP3 receptor (IP3 R); photolysis at 366 nm
  binding to the receptor upon photolysis: UV-dose-dependent increase of binding
  time at which binding leveled off on photolysis: about 2 hours
IP3 receptor (IP3 R)
  affinity to IP3 R / binding to cerebellar microsomes (in words): negligible binding

## COC1O[C@@H]2[C@@H](OP(=O)(O)O)[C@H](OP(=O)(O)O)[C@@H](O)[C@H](OP(=O)(O)O)[C@@H]2O1 (stereo partly drawn) [D-2,3-methoxymethylene-myo-inositol 1,4,5-trisphosphate]
phosphatase
  phosphorylation into 1,3,4,5-IP4 (in words): can not be phosphorylated into 1,3,4,5-IP4
1321N1 astrocytoma cells [1]; photolysis product of V-16 in cells
  internal Ca2+ release upon photolysis (in words): induced internal Ca^2+ release
IP3 receptor (IP3 R); assuming 100% chemical yield of uncaged product
  affinity for IP3 receptor, fold weaker than IP3: 3 fold
IP3 receptor (IP3 R); photolysis product
  affinity to IP3 R relative to IP3: at least one third

## O=P(O)(O)O[C@@H]1[C@H](O)[C@H](O)[C@@H](OP(=O)(O)O)[C@H](OP(=O)(O)O)[C@H]1O [D-IP3, myo-inositol 1,4,5-triphosphate, reference compound]
IP3 receptor (IP3 R); cerebellar microsomes, read-out: IC50, inhibition of [3H]IP3 binding
  pIC50: ~8.10

## COc1cc(CO[C@@H]2[C@@H](OP(=O)(OCOC(C)=O)OCOC(C)=O)[C@H](OP(=O)(OCOC(C)=O)OCOC(C)=O)[C@H]3OC(OC)O[C@H]3[C@H]2OP(=O)(OCOC(C)=O)OCOC(C)=O)c([N+](=O)[O-])cc1OC (stereo partly drawn) [IP3 -CAM, D-2,3-O-methoxymethylene-6-O-(4,5-dimethoxy-2-nitrobenzyl)-myo-inositol 1,4,5-trisphosphate hexakis(acetoxymethyl)ester]
1321N1 astrocytoma cells [1]; astrocytes, response similar to IP3-CPM
  incubation time required: more than 15 minutes

## CCCC(=O)OCOP(=O)(OCOC(=O)CCC)O[C@@H]1[C@H](O)[C@H](O)[C@@H](OP(=O)(OCOC(=O)CCC)OCOC(=O)CCC)[C@H](OP(=O)(OCOC(=O)CCC)OCOC(=O)CCC)[C@H]1O [IP3 /BM, D-myo-inositol-1,4,5-triphosphate butyryloxymethyl ester]
1321N1 astrocytoma cells [3]; 2 μM, with extracellular Ca2+
  Ca2+ elevation, potency compared with propionyloxymethyl ester: somewhat more potent
  time course compared with propionyloxymethyl ester: slower to appear and decay

## CCC(=O)OCOP(=O)(OCOC(=O)CC)O[C@@H]1[C@H](O)[C@H](O)[C@@H](OP(=O)(OCOC(=O)CC)OCOC(=O)CC)[C@H](OP(=O)(OCOC(=O)CC)OCOC(=O)CC)[C@H]1O [IP3 /PM, D-myo-inositol-1,4,5-triphosphate propionyloxymethyl ester]
1321N1 astrocytoma cells [3]; [5]
  response to subsequent carbachol (200 μM): depressed
  response to subsequent thapsigargin (100 nM): depressed
1321N1 astrocytoma cells [3]; 20 μM, with extracellular Ca2+
  delay of Ca2+ elevation: about 100 second
  elevation of cytosolic Ca2+: sizable elevation of cytosolic Ca^2+
1321N1 astrocytoma cells [3]; 60 μM compound, no extracellular Ca2+
  response to subsequent carbachol (200 μM): greatly depressed
1321N1 astrocytoma cells [3]; 60 μM, no extracellular Ca2+
  delay of Ca2+ elevation: ~50 s
  elevation of cytosolic Ca2+: sizable elevation of cytosolic Ca^2+
REF-52 fibroblasts; REF-52, 40 μM compound
  effect of subsequent vasopressin after compound: much less effect than normal
REF-52 fibroblasts; REF-52, 40 μM extracellular
  cytosolic Ca2+ concentration: increased rapidly
REF-52 fibroblasts; intact REF-52 fibroblasts and astrocytoma cells
  Ca2+ release from internal stores (in words): released Ca^2+ from internal stores

## C[C@H](CCC(=O)O)C[C@H](C)C[C@H](C)C(=O)/C=C(\O)[C@H](C)C[C@H](C)C/C=C/[C@@H](C)[C@@H](O)[C@@H](C)[C@@H](O)C[C@@H]1CC[C@@](C)([C@H]2CC[C@@](C)([C@@H](C)O)O2)O1 [Ionomycin, reference compound]
[4]
  [Ca2+]i response after uncaging of IP3-CPM: huge [Ca^2+ ]i increase
1321N1 astrocytoma cells [1]
  [Ca2+]i response after uncaging of IP3-CPM: small and transient [Ca^2+ ]i increase; also recorded: additional small [Ca^2+ ]i increase
1321N1 astrocytoma cells [2]
  [Ca2+]i response after recovery from uncaging of IP3-CPM: further raised [Ca^2+ ]i to a saturating level; also recorded: huge [Ca^2+ ]i increase

## O=P(O)(O)O[C@@H]1[C@@H](O)[C@H](OP(=O)(O)O)[C@@H](OP(=O)(O)O)[C@H](O)[C@@H]1O [L-IP3, reference compound]
IP3 receptor (IP3 R)
  affinity to IP3 R / binding to cerebellar microsomes (in words): negligible affinity

## CCCCCCCCCCCCCCCCOC[C@H](COP(=O)([O-])OCC[N+](C)(C)C)OC(C)=O [PAF, reference compound]
[4]
  [Ca2+]i response after uncaging of IP3-CPM: smaller [Ca^2+ ]i increase; also recorded: attenuated response

## C/C=C(/C)C(=O)O[C@H]1C(C)=C2[C@H]([C@@H]1OC(=O)CCCCCCC)[C@@](C)(OC(C)=O)C[C@H](OC(=O)CCC)[C@@]1(O)[C@H]2OC(=O)[C@@]1(C)O [thapsigargin]
1321N1 astrocytoma cells [1]
  [Ca2+]i response after uncaging of IP3-CPM: able to cause further Ca^2+ release
1321N1 astrocytoma cells [2]
  [Ca2+]i response after recovery from uncaging of IP3-CPM: normally; also recorded: normal response
